The test system of the series is C. elegans VP596 worm health composite score, 20-22 h. As to the kind of experiment: whole-worm cytotoxicity of SKN-1 inhibitor analogs – whole organism, strain VP596, composite health score, round 2, cytotoxicity control for SKN-1 inhibitor project, SAR follow-up (AID 652281).

In general, IC50 refers to the midpoint of a concentration-inhibition curve.

Activity calls are given as the source filed them.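 How the source made its calls: active means compounds toxic to worms, with a half-maximal toxicity dose of 25 µM or lower; inactive means the rest.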

As to `CCOc1cc(CNC2CC2)cc(Cl)c1OCc1ccc(Br)cc1`, the IC50 is > 64 µM (inactive).
For the compound `CCOc1cc(CN2CCCC2)cc(Cl)c1OCc1ccc(Cl)cc1`, the IC50 was > 64 µM (inactive).
Consider `COc1cc(CNC2CCCC2)cc(Br)c1OCc1ccc(Cl)cc1`, for which the IC50 was > 64 µM (inactive).
Then `CCOc1cc(CNC)cc(Cl)c1OCc1ccc(Cl)cc1`, with > 64 µM (inactive); and `CCOc1cc(CN(C)C2CCCC2)cc(Cl)c1OCc1ccc(Cl)cc1`, with > 64 µM (inactive).
Turning to `CCOc1cc(CN(C(C)=O)C2CCCC2)cc(Cl)c1OCc1ccc(Cl)cc1`, the IC50 is > 64 µM (inactive).
As for `Cc1cc(CNC2CCCC2)cc(C)c1OCc1ccc(Cl)cc1`, the figure is > 64 µM (inactive); as for `CCOc1cc(CNC2CCCC2)cc(Cl)c1OCc1ccc(Br)cc1`, > 64 µM (inactive).
Take `CCOc1cc(CNC2CC2)cc(Cl)c1OCc1ccc(Cl)cc1F`: the IC50 was > 64 µM (inactive).
Then `C=CCNCc1cc(Cl)c(OCc2ccc(Cl)cc2)c(OCC)c1`, with > 64 µM (inactive); and `CCOc1cc(CNC2CC2)cc(Cl)c1OCc1ccc(Cl)cc1`, with > 64 µM (inactive).
Then `Clc1ccc(COc2c(Cl)cc(CNC3CCCC3)cc2Cl)cc1`, with > 64 µM (inactive).
As for `CCOc1cc(CN2CCN(C)CC2)cc(Cl)c1OCc1ccc(F)cc1`, the figure is > 64 µM (inactive).
Turning to `CCOc1cc(CNCC2CC2)cc(Cl)c1OCc1ccc(Cl)cc1`, the IC50 was > 64 µM (inactive).
`COc1cc(CNC2CCCC2)cc(F)c1OCc1ccc(Cl)cc1`: the IC50 was > 64 µM (inactive).
As for `CCOc1cc(CN2CCCCC2)cc(Cl)c1OCc1ccc(Cl)cc1`, the figure is > 64 µM (inactive); as for `CCOc1cc(CNC2CC2)cc(Cl)c1OCc1ccc(C#N)cc1`, > 64 µM (inactive); as for `CCOc1cc(CN2CCCC2)cc(Cl)c1OCc1ccc(F)cc1`, > 64 µM (inactive).
Then `COc1cc(CNC2CCCC2)cc(Cl)c1OCc1ccc(Cl)cc1`, with > 64 µM (inactive); and `CCOc1cc(CNC2CCCC2)cc(Cl)c1OCc1ccc(Cl)cc1F`, with > 64 µM (inactive); and `CCOc1cc(CN2CCOCC2)cc(Cl)c1OCc1ccc(Cl)cc1`, with > 64 µM (inactive).
Then `CCOc1cc(CN2CCOCC2)cc(Cl)c1OCc1ccc(F)cc1`, with > 64 µM (inactive); and `CCOc1cc(CN2CCCCC2)cc(Cl)c1OCc1ccc(F)cc1`, with > 64 µM (inactive); and `CCCNCc1cc(Cl)c(OCc2ccc(Cl)cc2)c(OCC)c1`, with > 64 µM (inactive).
For `CCOc1cc(CNC2CCCC2)cc(Cl)c1OCc1ccc(C#N)cc1`, the IC50 was > 64 µM (inactive).
Then `CCOc1cc(CN2CCN(C)CC2)cc(Cl)c1OCc1ccc(Cl)cc1`, with > 64 µM (inactive); and `C#CCNCc1cc(Cl)c(OCc2ccc(Cl)cc2)c(OCC)c1`, with > 64 µM (inactive).

The values above are taken from PubChem BioAssay AID652281 (Sanford-Burnham Center for Chemical Genomics, 2013).
